As usually defined, the IC50 is the concentration that inhibits the measured activity by half.

Data set [1] can be described thus: Laser triggered drug release from particles in gelatin. In kind it is physicochemical. To be noted: PMMA beads with 25% VTMS shells in gelatin; Q-switched Lutronic laser 1064 nm, 2.46-5.09 J/cm^2. As for the experimental part:
Procedure: A solution of gelatin was prepared by adding Knox gelatin (1.0 g) to cold water (12.5 g) in a 100 mL glass jar equipped with a magnetic stir bar. The gelatin was stirred 15-30 minutes and then hot water was added (70° C.) until the total weight was 50.0 g. This gelatin was then used in 2.0 gm aliquots. Drug loaded PMMA beads with 25% VTMS shells as prepared in Example 1b above (20-30 mg) were then added to the gelatin solution (2.0 g) and vortexed mixed in a 4 dram vial. The suspension of the tattoo particles in gelatin was then sonicated for 15-30 minutes before transferring to a 5 cm plastic culture dish. The gelatin suspension was spread evenly and allowed to set. It was then covered and placed in a refrigerator a 6° C. until ready for laser exposure.
Laser exposure was accomplished as follows: The cover for the culture dish was removed and a 5 cm clear plastic cover was cut and fit over the gelatin to prevent splatter. The top surface was then completely lasered at 1064 nm with a 5 mm spot using fluences ranging from 2.46 J/cm^2 to 5.09 J/cm^2 using Q-switched Lutronic laser.
After lasering the top surface the culture dish was covered with its lid, turned over and lasered from the opposite side to reach any unexposed beads visible only from the bottom side.
The standard fluence for tattoo removal is 3.51 J/cm^2. […]

The test system of the next data set is MCF7. To be noted: MCF7, ER+ breast cancer cells; Hu et al. 2018; cited from earlier work.
The nature of data set [2]: Leaching (stability) test, protective effect of VTMS shell. As to conditions: post-coating vs pre-coating B-805 particles; 1% SDS in water, sonicated 90 minutes. The class given is physicochemical. As for the experimental part: Prior to the test, particles were dispersed in water for storage at varying concentrations. Amounts of fluid containing 50 mg of particles—a sample of pre-coating particles and a sample of post-coating particles—were weighed into 15 mL conical centrifuge tubes. The tubes were centrifuged to sediment the particles and supernatant was removed. 3 mL of 1% SDS in water was added to each tube, which were then vortexed to resuspend particles. The tubes containing the particles suspended in SDS solution were placed into a sonicated water bath for 90 minutes. The tubes were then removed and centrifuged to sediment the particles again. The supernatant was retained and filtered through a 0.2 μm syringe filter to remove any remaining particles. Absorption spectra of the supernatants was then measured on a Shimadzu 3600 UV/Vis/NIR spectrophotometer from 400-1300 nm. Molarity of colored components in the solutions and the percentage decrease of absorption between post-coating and pre-coating particles was calculated from the spectra.

The next data set deals with MDA-MB-231. To be noted: MDA-MB-231, ER-PR-HER2- cells; Hu et al. 2018; cited from earlier work.
The next data set deals with MDA-MD-468. As to conditions: MDA-MD-468, ER-PR-HER2- cells; Hu et al. 2018; cited from earlier work.
In a further data set the test system is BT-20. As to conditions: BT-20, ER-PR-HER2- cells; Hu et al. 2018; cited from earlier work.
The test system of a further data set is MDA-MB-415. As to conditions: MDA-MB-415, ER+ breast cancer cells; Hu et al. 2018; cited from earlier work.
A short description of data set [3]: Percentage of curcumin and Epolight IR 1117 loading / encapsulation determination. To be noted: in B-805 PMMA/BMA particles made by Example 13(b). The class given is physicochemical. As for the experimental part:
The UV-VIS-NIR absorbance spectrum of the IR absorbing agent and/or the drug is measured using Shimadzu UV-3600 UV-VIS-NIR Spectrophotometer. The concentration of the IR absorbing agent in the particles is determined from application of Beer's law.

The test system of another data set is T47D. To be noted: ER+ breast cancer cells, Hu et al. 2018; cited from earlier work.

`COc1cc(/C=C/C(=O)CC(=O)/C=C/c2ccc(O)c(OC)c2)ccc1O` [Curcumin, curcumin]: in data set [1], the “curcumin released from the particles” value is recorded as “about 3 wt. %”. The IC50 in the data set on MCF7 is 1.32 ± 0.06 µM; in the data set on MDA-MB-231 it was 11.3 ± 2.13 µM; in the data set with MDA-MD-468, 18.6 ± 3.12 µM; with BT-20 it was 16.2 ± 2.16 µM; with MDA-MB-415, 4.69 ± 0.06 µM; with T47D it was 2.07 ± 0.08 µM. Besides, the “reduction of leaching by VTMS shell” value in data set [2] was found to be 70%. Further, in data set [3], the measured encapsulation is given as 78%.
